# Source: patent US8071506B2, “Synergistic herbicidal composition containing florasulam for weed control in turf” (Dow AgroSciences LLC, priority 2009, dated 2011)
# How the values were obtained:
# Assay in all cases: Field study of weed control in established turfgrass, percent control from visual weed cover
# [1] = test system: White Clover (TRFRE); type: in vivo, Trifolium repens; conditions: for Observed percent control: Florasulam GR 15 g ai/ha
# Experimental: (§1) Field studies were conducted in established turfgrass sites containing a natural population of target broadleaf weeds. Replicated trials, containing a minimum of three replications and having individual plots ranging in size from 25 to 50 ft. sq, were initiated in the early spring with turf and weeds still in dormancy or just beginning active growth. Studies containing two components (florasulam and dithiopyr or pendimethalin) were timed to coincide with typical preemergent crabgrass (Digitaria sp.) timing at the study location. Studies containing three components (florasulam, dithiopyr or pendimethalin, Trimec (2,4-D+dicamba+MCPP-p) or Scotts Plus 2 (2,4-D+MCPP-p) were timed as previous for the florasulam and dithiopyr or pendimethalin components followed by an application of Trimec or Scotts Plus 2 at peak dandelion bloom which occurs approximately six weeks after a typical preemergent application. Granule treatments were uniformly applied to individual plots using a common hand-shaker or shaker table method. Liquid applications were applied with a CO2 backpack sprayer calibrated to deliver 40 to 100 GPA at 40 to 60 PSI. Applications were generally made in the early morning when dew was present. Natural rainfall and supplemental irrigation were used to maintain healthy turf and active weed growth throughout the study period. Weed control evaluations were made by visually assessing percent weed cover of each weed species in each plot at the initiation of the study and at each evaluation interval, converting to percent control using the following formula: (1−(B/A))*100
# (§2) A=percent weed cover at study initiation
# (§3) B=percent weed at a specific evaluation interval after application
# (§4) Using this method, control ranges occur between 0 and 100 percent where 0 corresponds to no control and 100 corresponds to complete kill. Percent cover of each weed species was made at approximately 2, 4 and 8 weeks after treatment.
# (§5) The following equation was used to calculate the expected activity of mixtures containing two active ingredients, A and B: Expected=A+B−(A×B/100)
# (§6) A=observed efficacy of active component A at the same concentration as used in the mixture.
# (§7) B=observed efficacy of active component B at the same concentration as used in the mixture.
# (§8) The following equation was used to calculate the expected activity of mixtures containing three active ingredients, A and B and C: Expected=A+B+C−((A×B)+(A×C)+(B×C)/100)+(A×B×C/10,000)
# (§9) C=observed efficacy of active component C at the same concentration as used in the mixture.
# [2] = test system: Dandelion (TAROF); type: in vivo, Taraxacum officinale
# Experimental: as §1, §2, §3, §4, §5, §6, §7, §8, §9
# [3] = test system: Buckhorn Plantain (PLALA); type: in vivo, Plantago lanceolata; conditions: 27 DAT in turf; Pendimethalin GR 2300 g ai/ha, Florasulam GR 15 g ai/ha
# Experimental: as §1, with “Weed control evaluations were made by visually assessing percent weed cover of each weed species in each plot at the initiation of the study and at each evaluation interval, converting to percent control using the following formula: (1−(B/A))*100” left out
# [4] = 28 DAT in turf, Dithiopyr GR 575 g ai/ha
# [5] = 36 DAT in turf, Dithiopyr GR 575 g ai/ha
# [6] = 62 DAT in turf, Dithiopyr GR 575 g ai/ha
# [7] = 36 DAT in turf, Dithiopyr GR 575 g ai/ha, Florasulam GR 15 g ai/ha
# [8] = 56 DAT in turf, Dithiopyr GR 575 g ai/ha, Florasulam GR 15 g ai/ha
# [9] = 57 DAT in turf, Dithiopyr GR 575 g ai/ha, Florasulam GR 15 g ai/ha, Trimec EC 4 Pt/A
# [10] = 58 DAT in turf, Dithiopyr 2EW 575 g ai/ha, Florasulam SC 15 g ai/ha
# [11] = 59 DAT in turf, Dithiopyr GR 575 g ai/ha, Florasulam GR 15 g ai/ha, Trimec EC 4 Pt/A
# [12] = 64 DAT in turf, Dithiopyr GR 575 g ai/ha, Florasulam GR 15 g ai/ha, Trimec EC 4 Pt/A
# [13] = 91 DAT in turf, Dithiopyr GR 575 g ai/ha, Florasulam GR 15 g ai/ha
# [14] = 55 DAT in turf, Pendimethalin GR 2300 g ai/ha, Scotts Plus 2 125 Lb/A
# [15] = applications made at the preemergent herbicide application timing
# [16] = 60 DAT in turf, Pendimethalin GR 2300 g ai/ha, Florasulam GR 15 g ai/ha, Scotts Plus 2 125 Lb/A
SMILES,"Observed percent control [1, 4] [%]","Observed percent control [1, 5] [%]","Observed percent control [1, 6] [%]","Observed percent control [2, 7] [%]","Observed percent control [2, 8] [%]","Observed percent control [2, 9] [%]","Observed percent control [2, 10] [%]","Observed percent control [2, 11] [%]","Observed percent control [2, 12] [%]","Observed percent control [2, 13] [%]","Observed percent control [1, 14] [%]","Control of white clover, in words [1, 15]","Observed percent control [2, 16] [%]","Control of dandelion, in words [2, 15]",Observed percent control [3] [%]
"CSC(=O)c1c(C(F)F)nc(C(F)(F)F)c(C(=O)SC)c1CC(C)C [Dithiopyr, S,S′-dimethyl 2-(difluoromethyl)-4-(2-methylpropyl)-6-(trifluoromethyl)-3,5-pyridinedicarbothioate]",0,0,0,0,29,21,21.7,27,0,19,–,–,–,–,–
"COc1ncc(F)c2nc(S(=O)(=O)Nc3c(F)cccc3F)nn12 [Florasulam, N-(2,6-difluorophenyl)-8-fluoro-5-methoxyl[1,2,4]triazolo[1,5-c]pyrimidine-2-sulfonamide]",86.8,73,0,20,0,31,70,0,30,18,62.5,effectively controls,20.6,effectively controls,26.7
"CCC(CC)Nc1c([N+](=O)[O-])cc(C)c(C)c1[N+](=O)[O-] [Pendimethalin, N-(1-ethylpropyl)-3,4-dimethyl-2,6-dinitrobenzenamine]",–,–,–,–,–,–,–,–,–,–,0,–,21,–,0
